Values of other authors, collected in US20060165671A1, “Novel nutraceutical compositions comprising epigallocatechin gallate” (priority 2002, published 2006).

Assays:
[1] = test system: muscle and adipose cells in culture
[2] = glucose intolerant and non-insulin dependent diabetic animals
[3] = patients with type 2
rat primary hepatocytes = details: concentrations from about 10 to about 100 μM
pre-adipocyte cells = details: compared to the specific PPAR-γ agonist ciglitazone
[4] = after CoQ10 supplementation, several studies

Compound: 1,2-dithiolane-3-pentaenoic acid [Lipoic acid]
- glucose transport [1]: stimulates glucose transport
- basal and insulin-stimulated glucose uptake by skeletal muscles [2]: raised
- glucose disposal [3]: improves glucose disposal

Compound: CC(C)CCCC(C)CCCC(C)CCCC(C)CC(=O)O (stereo not drawn) [Phytanic acid, 3,7,11,15-tetramethylhexadecanoic acid]
- uptake of glucose (rat primary hepatocytes): enhances uptake of glucose
- differentiation of pre-adipocyte cells into mature adipocytes (pre-adipocyte cells): only minor effects

Compound: COC1=C(OC)C(=O)C(C/C=C(\C)CC/C=C(\C)CC/C=C(\C)CC/C=C(\C)CC/C=C(\C)CC/C=C(\C)CC/C=C(\C)CC/C=C(\C)CC/C=C(\C)CCC=C(C)C)=C(C)C1=O [CoQ10, 6-Decaprenyl-2,3-dimethoxy-5-methyl-1,4-benzoquinone]
- LDL oxidation [4]: reduced
